Data: patent publication US8268854B2, “Aza-beta-carbolines and methods of using same” (The UWM Research Foundation, Inc., priority 2008, dated 2012)

Key:
[1] = molecular target: T1, GABAA receptor α2 subtype with β2 and γ2 subunits (Homo sapiens, UniProt P18507+P47869); experiment: Competition binding assay with [3H]flunitrazepam; details: [3H]flunitrazepam, α2β2γ2, HEKT cells; read-out: GABAA RECEPTOR BINDING α2
T1 construct: expressed in transfected cells; host or cells: HEKT cell line, transient transfection with Fugene 6
Source text: (§1) Bound radioactivity is quantified by liquid scintillation counting.

[2] = molecular target: T2, GABAA receptor α5 subtype with β2 and γ2 subunits (Homo sapiens, UniProt P18507+P31644); experiment: Competition binding assay with [3H]flunitrazepam; details: [3H]flunitrazepam, α5β2γ2, HEKT cells; read-out: GABAA RECEPTOR BINDING α5
T2 construct: expressed in transfected cells; host or cells: HEKT cell line, transient transfection with Fugene 6
Source text: as §1

[3] = molecular target: T3, GABAA receptor α1 subtype with β2 and γ2 subunits (Homo sapiens, UniProt P14867+P18507); experiment: Competition binding assay with [3H]flunitrazepam; details: [3H]flunitrazepam, α1β2γ2, HEKT cells; read-out: GABAA RECEPTOR BINDING α1
T3 construct: expressed in transfected cells; host or cells: HEKT cell line, transient transfection with Fugene 6
Source text: as §1

[4] = molecular target: T4, GABAA receptor α3 subtype with β2 and γ2 subunits (Homo sapiens, UniProt P18507+P34903); experiment: Competition binding assay with [3H]flunitrazepam; details: [3H]flunitrazepam, α3β2γ2, HEKT cells; read-out: GABAA RECEPTOR BINDING α3
T4 construct: expressed in transfected cells; host or cells: HEKT cell line, transient transfection with Fugene 6
Source text: as §1

GABAA receptor = experiment: PDSP radioligand binding assay (Example 6); details: Example 6, written in present tense
Method: Primary and secondary radioligand binding assays are performed. In general, the primary assay is run at very high ligand (compound) concentration as a broad screen to determine whether a compound binds to a particular receptor. If greater than 50% inhibition at 10 μM (high concentration of compound) at a particular receptor is determined, a secondary assay is performed on that receptor. Data from the secondary assay is the binding affinity (Ki value).
A solution of the compound to be tested is prepared as a 1 mg/ml stock in Standard Binding Buffer or dimethyl sulfoxide (DMSO) according to its solubility. A similar stock of a reference compound (positive control) is also prepared. […]
The 250 μL reactions are incubated at room temperature and shielded from light (to prevent photolysis of light-sensitive ligands) for 1.5 hours, then harvested by rapid filtration onto Whatman GF/B glass fiber filters pre-soaked with 0.3% polyethyleneimine using a 96-well Brandel harvester. […] The tubes are capped, labeled, and counted by liquid scintillation counting. For higher throughput assays, bound radioactivity is harvested onto 0.3% polyethyleneimine-treated, 96-well filter mats using a 96-well Filtermate harvester. The filter mats are dried, then scintillant is melted onto the filters, and the radioactivity retained on the filters is counted in a Microbeta scintillation counter. […]

[5] = system: BzR/GABAa-ergic receptors; details: Example 8, written in present tense

Row | Ki [1] | Ki [2] | Ki [3] | Ki [4] | Compound | binding to GABAA receptor (in words) (GABAA receptor) | binding to the BzR/GABAa-ergic receptors (in words) [5]
1 | 2.5 nM | 3.7 nM | 2.9 nM | 3.4 nM | CC(C)(C)OC(=O)c1cc2c(cn1)[nH]c1cnccc12 [Compound 3, Tert-Butyl pyridine[4′,5′-5,4]pyrrolo[2,3-c]pyridine-3-carboxylate] | shown to bind to GABAA receptor | 
2 |  |  |  |  | tert-Butyl pyridine[4′,5′-4,5]pyrrolo[3,2-c]pyridine-8-carboxylate [Compound 1] | shown to bind to GABAA receptor | potently binds
